These are literature values, as cited in patent US7977378B1, “Compositions and methods for enhancing weight-loss by cyclical administration of compounds” (priority 2007, dated 2011).

The subject of data set [1] is contractile effect of noradrenaline. The settings on record: 2×10(−6) and 1×10(−7) M.
For another data set, the system named is adipocyte. The settings on record: in vitro.
In data set [2] the test system is endothelium-intact rat aorta. The note with it: equal potency.
The test system of a further data set is hepatic TG. The settings on record: 60 mg/kg·day.
Data set [3] deals with hepatic glucose-6-phosphatase.
For data set [4] the following is noted: up to 200 mg kg-1.
In data set [5] the test system is guinea-pig isolated right atria.
Data set [6] deals with contractile responses evoked by phenylephrine and high K+. The note with it: 4 approximately 12 microg/mL.

Turning to `O=C1C[C@@H](c2ccc(O)cc2)Oc2cc(O)cc(O)c21` [naringenin], in data set [1], the “Contractile effect of noradrenaline” value is reported as “increased”.
With `C=CCSSC=CC[S+]([O-])CC=C` (mixture of isomers) [ajoene], the Adipocyte apoptosis result with adipocyte is on record as “induced”.
Consider `Cn1c(=O)c2c(ncn2C)n(C)c1=O` [caffeine], for which, for the setting “after ingestion”, the “Increase of energy expenditure” value is given as 13%, the “Increase of oxidative FFA disposal” value is 44%, the “Share of lipids oxidized” value is reported as 24% and the “Share of lipids recycled” value is on record as 76%. For the setting “after ingestion (from 236+/−21)”, the “Oxidative FFA disposal” value is 340+/−16 micro mol/min. Further, for the setting “after ingestion (from 455+/−66)”, the “Non-oxidative FFA disposal” value is 1054+/−242 micro mol/min. Further, the “Increase of non-oxidative FFA disposal” value (after ingestion, P<0.01) is recorded as 2.3 fold. Besides, the “Increase of lipid turnover” value (steady state (last hour of the test) after ingestion, P<0.005) is recorded as 2 fold.
Consider `C[n+]1c2n(c(=O)c3ccccc31)CCc1c-2[nH]c2ccccc12` [dehydroevodiamine], for which, in data set [2], the Vasodilatory effect result is “vasodilatory effect”.
As for `O=C(O)/C=C/c1cccc(O)c1` [m-coumaric acid], the “Effect on cell cycle” value with 3T3-L1 preadipocytes is “cell cycle arrest in the G1 phase”.
In the case of `O=C(/C=C/c1ccc(O)c(O)c1)O[C@@H]1C[C@](O)(C(=O)O)C[C@@H](O)[C@H]1O` [chlorogenic acid], in the data set on hepatic TG, the “Level of hepatic TG” value is “significantly reduced”. Moreover, in the data set on 3T3-L1 preadipocytes, the “Effect on cell cycle” value is listed as “cell cycle arrest in the G1 phase”. Besides, the “Inhibition of hepatic glucose-6-phosphatase” value in [3] is “selectively inhibit”.
For the compound catechin, the “Effect on intestinal transit” value in data set [4] is given as “no effect”.
For `COc1ccc([C@@H]2CC(=O)c3c(O)cc(O)cc3O2)cc1O` [hesperitin], the “Effect on intestinal transit” value in data set [4] is “no effect”.
On to `O=C(O)/C=C/c1ccccc1O` [o-coumaric acid], for which the “Effect on cell cycle” value in the data set on 3T3-L1 preadipocytes is given as “cell cycle arrest in the G1 phase”.
Take evodiamine: in the data set on bovine adrenal medulla, the Catecholamine secretion entry is “stimulate” and the “Insensitivity of the cells to acetylcholine or high K+ stimulation” value was “reversed insensitivity”. Besides, the Vasodilatory effect entry in data set [2] is on record as “vasodilatory effect”. Besides, the “Inotropic and chronotropic effects” value in data set [5] was “positive inotropic and chronotropic effects”.
As to TNF-alpha, the Adipocyte apoptosis result with adipocyte is reported as “induced”.
(−)-epigallocatechin gallate [EGCG]: in the data set on adipocyte, the Adipocyte apoptosis entry is “induced”. Further, the “Effect on contractile responses evoked by phenylephrine and high K+” value in [6] was “did not affect”.
